What all share (type): biochemical
In one assay the target is T1, JAK1 (Homo sapiens, UniProt P23458).
T1 construct: purchased Life technology
Briefly: Test for in vitro activity of JAK1 kinase (LANCE Ultra ULight-JAK-1 peptide). Particulars: selectivity ratio JAK1 versus JAK2; class symbol. The protocol: (§1) Test for In Vitro Activity of Jak1, Jak2, and Jak3 Kinase
(§2) Recombinant human […] of JAK1, JAK2 and JAK3 were purchased from Life technology. LANCE Ultra ULight™-JAK-1 (Tyr1023) peptide and LANCE Eu-W1024 Anti-phosphotyrosine (PT66) were purchased from PerkinElmer. Multimode ELISA, Envison(PerkinElmer) reader was used.
The reaction was carried out at room temperature for 90 min and the reaction system was 10 ul.
(§3) Determination for Reaction
(§4) 10 ul detection reagent was added to reaction plate, wherein the final concentration of LANCE Eu-W1024 Anti-phosphotyrosine (PT66) was 2 nM, the final concentration of EDTA was […], incubated at room temperature for 60 min, with Envison reader.
(§5) The reading was converted to inhibition ratio (%) by the following formula: the inhibition ratio (%)=([…])/(Max−Min)×100%.
For orientation: Time-resolved FRET reads energy transfer from a long-lived donor to a nearby acceptor.

The target in another assay is T2, JAK3 (Homo sapiens, UniProt P52333).
T2 construct: purchased Life technology
T2 sequence (P52333 1-1124): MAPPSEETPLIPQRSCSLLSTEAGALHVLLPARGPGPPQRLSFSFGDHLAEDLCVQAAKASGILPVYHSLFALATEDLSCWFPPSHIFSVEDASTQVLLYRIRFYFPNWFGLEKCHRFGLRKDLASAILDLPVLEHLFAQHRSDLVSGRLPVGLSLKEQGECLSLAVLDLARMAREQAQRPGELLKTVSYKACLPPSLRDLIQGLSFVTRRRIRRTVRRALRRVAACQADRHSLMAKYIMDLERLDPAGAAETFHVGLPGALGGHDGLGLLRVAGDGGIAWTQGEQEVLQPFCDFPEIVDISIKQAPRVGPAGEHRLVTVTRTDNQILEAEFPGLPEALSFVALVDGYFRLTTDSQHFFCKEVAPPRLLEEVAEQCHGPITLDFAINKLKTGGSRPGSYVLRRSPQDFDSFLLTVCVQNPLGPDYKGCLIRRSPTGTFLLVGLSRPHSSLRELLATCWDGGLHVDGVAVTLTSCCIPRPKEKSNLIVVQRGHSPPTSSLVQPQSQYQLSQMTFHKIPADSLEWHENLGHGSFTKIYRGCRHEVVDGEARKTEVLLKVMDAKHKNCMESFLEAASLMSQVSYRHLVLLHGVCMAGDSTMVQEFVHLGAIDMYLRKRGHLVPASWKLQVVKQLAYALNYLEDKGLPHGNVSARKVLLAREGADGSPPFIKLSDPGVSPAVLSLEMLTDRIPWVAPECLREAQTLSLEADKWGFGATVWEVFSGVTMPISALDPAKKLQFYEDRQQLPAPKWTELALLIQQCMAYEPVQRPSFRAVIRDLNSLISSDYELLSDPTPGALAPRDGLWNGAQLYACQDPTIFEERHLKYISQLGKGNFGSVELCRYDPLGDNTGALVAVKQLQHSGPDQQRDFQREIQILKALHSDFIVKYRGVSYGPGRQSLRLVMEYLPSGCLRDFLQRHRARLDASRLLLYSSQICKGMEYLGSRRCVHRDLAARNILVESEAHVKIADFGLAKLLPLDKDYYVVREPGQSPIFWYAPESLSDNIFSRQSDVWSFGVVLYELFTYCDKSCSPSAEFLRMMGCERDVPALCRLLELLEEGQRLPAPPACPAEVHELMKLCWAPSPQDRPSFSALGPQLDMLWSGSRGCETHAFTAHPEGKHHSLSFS
Briefly: Test for in vitro activity of JAK3 kinase (LANCE Ultra ULight-JAK-1 peptide). The protocol: as §1, §2
0.05 nM of JAK3 Protein kinase, 50 nM of LANCE Ultra ULight™-JAK-1(Tyr1023) peptide, 4 uM of ATP, 50 mM of HEPES (pH 7.5), 10 mM of MgCl2, 1 mM of EGTA, 2 mM of DTT, 0.01% BRIJ-35. […] The reaction was carried out at room temperature for 90 min and the reaction system was 10 ul.
as §3, §4, §5

Another assay has as its target T3, JAK2 (Homo sapiens, UniProt O60674).
T3 construct: purchased Life technology
Briefly: Test for in vitro activity of JAK2 kinase (LANCE Ultra ULight-JAK-1 peptide). The protocol:
as §1, §2
The reaction was carried out at room temperature for 60 min and the reaction system was 10 ul.
as §3, §4, §5

Setting [1] is: selectivity ratio JAK3 versus JAK2, class symbol.
[2] abbreviates: recombinant human JAK2, 12 uM ATP, 60 min, class symbol.

Read-outs that look alike come from different tables or passages of the source.

T1 sequence (P23458 whole entry): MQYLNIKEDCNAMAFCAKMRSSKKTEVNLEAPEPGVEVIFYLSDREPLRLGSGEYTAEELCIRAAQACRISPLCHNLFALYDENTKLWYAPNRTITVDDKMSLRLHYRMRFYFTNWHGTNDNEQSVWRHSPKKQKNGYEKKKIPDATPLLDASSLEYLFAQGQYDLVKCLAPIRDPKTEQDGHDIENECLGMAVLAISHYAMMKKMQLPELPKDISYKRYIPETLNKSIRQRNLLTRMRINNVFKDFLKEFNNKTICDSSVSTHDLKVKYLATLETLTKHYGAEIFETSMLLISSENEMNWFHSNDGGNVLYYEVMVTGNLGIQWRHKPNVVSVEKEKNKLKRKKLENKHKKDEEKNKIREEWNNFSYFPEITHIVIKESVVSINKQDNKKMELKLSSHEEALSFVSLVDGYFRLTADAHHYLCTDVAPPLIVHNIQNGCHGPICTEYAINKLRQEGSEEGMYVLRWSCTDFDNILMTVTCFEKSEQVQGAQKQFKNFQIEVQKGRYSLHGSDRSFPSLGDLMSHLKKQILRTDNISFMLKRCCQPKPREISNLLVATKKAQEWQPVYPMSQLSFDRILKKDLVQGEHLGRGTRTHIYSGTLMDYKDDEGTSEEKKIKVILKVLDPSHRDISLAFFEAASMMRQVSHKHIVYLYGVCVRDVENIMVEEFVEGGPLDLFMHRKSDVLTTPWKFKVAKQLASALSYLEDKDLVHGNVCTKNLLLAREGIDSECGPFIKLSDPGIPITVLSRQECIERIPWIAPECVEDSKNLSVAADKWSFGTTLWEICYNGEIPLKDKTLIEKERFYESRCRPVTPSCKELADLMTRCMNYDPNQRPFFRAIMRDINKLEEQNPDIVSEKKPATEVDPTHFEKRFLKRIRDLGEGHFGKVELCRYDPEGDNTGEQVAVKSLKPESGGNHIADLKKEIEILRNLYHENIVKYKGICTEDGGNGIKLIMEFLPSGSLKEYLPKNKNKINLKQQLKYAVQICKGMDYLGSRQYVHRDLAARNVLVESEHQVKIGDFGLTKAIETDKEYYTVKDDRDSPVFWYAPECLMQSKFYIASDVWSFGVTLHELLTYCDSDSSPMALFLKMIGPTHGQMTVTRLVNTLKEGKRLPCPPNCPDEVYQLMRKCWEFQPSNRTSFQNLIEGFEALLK
T3 sequence (O60674 whole entry): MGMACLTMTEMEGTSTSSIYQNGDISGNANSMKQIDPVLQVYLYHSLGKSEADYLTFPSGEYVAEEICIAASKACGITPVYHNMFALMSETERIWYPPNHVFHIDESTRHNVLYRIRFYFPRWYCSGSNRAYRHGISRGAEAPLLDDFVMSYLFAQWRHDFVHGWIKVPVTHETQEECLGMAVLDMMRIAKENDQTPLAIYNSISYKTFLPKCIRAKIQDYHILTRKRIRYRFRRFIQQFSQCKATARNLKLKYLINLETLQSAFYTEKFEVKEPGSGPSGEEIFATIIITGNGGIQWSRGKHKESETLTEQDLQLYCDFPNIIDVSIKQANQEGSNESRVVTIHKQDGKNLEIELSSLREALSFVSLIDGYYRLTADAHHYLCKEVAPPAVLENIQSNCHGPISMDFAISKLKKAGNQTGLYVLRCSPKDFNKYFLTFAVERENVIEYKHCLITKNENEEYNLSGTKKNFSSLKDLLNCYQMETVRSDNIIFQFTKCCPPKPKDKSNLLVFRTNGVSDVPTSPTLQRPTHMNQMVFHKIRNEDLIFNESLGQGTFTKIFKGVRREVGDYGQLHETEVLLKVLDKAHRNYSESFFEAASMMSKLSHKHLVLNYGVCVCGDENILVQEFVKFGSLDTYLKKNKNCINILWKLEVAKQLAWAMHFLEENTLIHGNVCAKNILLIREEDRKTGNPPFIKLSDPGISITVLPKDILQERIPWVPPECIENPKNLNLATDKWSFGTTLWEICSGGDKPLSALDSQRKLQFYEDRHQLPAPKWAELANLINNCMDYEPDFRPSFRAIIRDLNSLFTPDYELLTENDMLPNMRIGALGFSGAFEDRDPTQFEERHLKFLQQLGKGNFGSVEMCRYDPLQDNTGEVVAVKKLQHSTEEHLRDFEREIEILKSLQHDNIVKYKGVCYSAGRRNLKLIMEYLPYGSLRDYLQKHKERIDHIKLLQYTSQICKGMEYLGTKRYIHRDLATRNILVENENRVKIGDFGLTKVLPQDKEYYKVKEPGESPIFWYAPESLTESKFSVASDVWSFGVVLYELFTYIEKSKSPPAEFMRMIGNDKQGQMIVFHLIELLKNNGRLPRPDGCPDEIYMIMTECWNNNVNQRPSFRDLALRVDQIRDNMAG

By IC50 is commonly meant the concentration that inhibits the measured activity by half. As to `N#CCC1(n2cc(-c3nccc4nc(NC(=O)C5CNC5)nn34)cn2)CN(S(=O)(=O)C(F)(F)F)C1` [WX06, N-[5-[1-[3-(cyanomethyl)-1-(trifluoromethylsulfonyl)cyclobutylamine-3-yl]pyrazole-4-yl]-[1,2,4]triazolo[1,5-c]pyrimidin-2-yl]cyclobutylamine-3-formamide], the “JAK1/JAK2 (times)” value at JAK1 was “F1 (1 ≤ F1 ≤ 5)”. For the same compound, at JAK3 (setting [1]), the “JAK3/JAK2 (times)” value was “F3 (10 < F3 ≤ 25)”. The IC50 on JAK2 (setting [2]) was 10 to 100 nM.

In the case of `N#CCC1(n2cc(-c3cccc4nc(N)nn34)cn2)CN(S(=O)(=O)C(F)(F)F)C1` [WX18], the “JAK1/JAK2 (times)” value on JAK1 is “F1 (1 ≤ F1 ≤ 5)”. Besides, the “JAK3/JAK2 (times)” value on JAK3 (setting [1]) was “F3 (10 < F3 ≤ 25)”. The IC50 on JAK2 (setting [2]) is below 10 nM.

Regarding `CS(=O)(=O)N1CC(CC#N)(n2cc(-c3nccc4nc(NC(=O)C5CC5)nn34)cn2)C1` [WX12, N-[5-[1-[3-(cyanomethyl)-1-methanesulfonyl-azetidine-3-]pyrazole-4-]-[1,2,4]triazoloe[1,5-c]pyrimidine2-] cyclopropane carboxamide], at JAK1, the “JAK1/JAK2 (times)” value is “F2 (5 < F2 ≤ 10)”. For the same compound, the “JAK3/JAK2 (times)” value at JAK3 (setting [1]) is recorded as “F3 (10 < F3 ≤ 25)”. Besides, the IC50 at JAK2 (setting [2]) is 10 to 100 nM.

For the compound `CCS(=O)(=O)N1CC(CC#N)(n2cc(-c3nccc4nc(NC(=O)C5CC5)nn34)cn2)C1` [WX01, N-[5-[1-[3-(cyanomethyl)-1-ethylsulfonylazetidine-3-yl]pyrazole-4-yl]-[1,2,4]triazolo[1,5-c]pyrimidin-2-yl]cyclopropanecarboxamide], the “JAK1/JAK2 (times)” value at JAK1 is on record as “F2 (5 < F2 ≤ 10)”. Moreover, the “JAK3/JAK2 (times)” value at JAK3 (setting [1]) is listed as “F3 (10 < F3 ≤ 25)”. For the same compound, the concentration for half-maximal inhibition (IC50) at JAK2 (setting [2]) was 10 to 100 nM.

`CS(=O)(=O)N1CC(CC#N)(n2cc(-c3cccc4nc(N)nn34)cn2)C1` [WX19, 2-(3-(4-(2-amino-[1,2,4]triazolo[1,5-a]pyridinyl)-1H-pyrazolyl)-1-(methylsulfonyl)cyclobutane)acetonitrile]: at JAK1, the “JAK1/JAK2 (times)” value is listed as “F1 (1 ≤ F1 ≤ 5)”. Also, on JAK3 (setting [1]), the “JAK3/JAK2 (times)” value is “F3 (10 < F3 ≤ 25)”. Further, the IC50 at JAK2 (setting [2]) was 10 to 100 nM.

On to `COCC(=O)N1CC(CC#N)(n2cc(-c3nccc4nc(NC(=O)C5CC5)nn34)cn2)C1` [WX10, N-[5-[1-[3-(cyanomethyl)-1-(2-methoxyacetyl)azetidine-3-]pyrazole-4-]-[1,2,4]triazoloe[1,5-c]pyrimidine2-] cyclopropane carboxamide], for which the “JAK1/JAK2 (times)” value on JAK1 is listed as “F1 (1 ≤ F1 ≤ 5)”. On JAK3 (setting [1]), the “JAK3/JAK2 (times)” value was “F1 (1 ≤ F1 ≤ 5)”. For the same compound, the IC50 at JAK2 (setting [2]) lay within 100 to 1000 nM.

Regarding `N#CCC1(n2cc(-c3nccc4nc(NC(=O)C5CC5)nn34)cn2)CN(S(=O)(=O)C2CC2)C1` [WX03, N-[5-[1-[3-(cyanomethyl)-1-cyclopropylsulfonyl-azetidine-3-yl]pyrazole-4-yl]-[1,2,4]triazolo[1,5-c]pyrimidin-2-yl]cyclopropanecarboxamide], the “JAK1/JAK2 (times)” value at JAK1 is on record as “F2 (5 < F2 ≤ 10)”. Further, the “JAK3/JAK2 (times)” value on JAK3 (setting [1]) is “F3 (10 < F3 ≤ 25)”. Besides, the IC50 at JAK2 (setting [2]) lay within 10 to 100 nM.

In the case of `N#CCC1(n2cc(-c3nccc4nc(NC(=O)C5CC5)nn34)cn2)CN(S(=O)(=O)C(F)(F)F)C1` [WX02, N-[5-[1-[3-(cyanomethyl)-1-(trifluoromethylsulfonyl)azetidine-3-yl]pyrazole-4-yl]-[1,2,4]triazolo[1,5-c]pyrimidin-2-yl]cyclopropanecarboxamide], on JAK1, the “JAK1/JAK2 (times)” value is listed as “F1 (1 ≤ F1 ≤ 5)”. Further, the “JAK3/JAK2 (times)” value on JAK3 (setting [1]) was “F3 (10 < F3 ≤ 25)”. Besides, the IC50 on JAK2 (setting [2]) is below 10 nM.

With `N#CCC1(n2cc(-c3nccc4nc(NC(=O)C5CC5)nn34)cn2)CN(S(=O)(=O)C(F)F)C1` [WX13, N-[5-[1-[3-(cyanomethyl)-1-(difluoromethylsulfonyl)-azetidine-3-]pyrazole-4-]-[1,2,4]triazoloe[1,5-c]pyrimidine2-]cyclopropane carboxamide], at JAK1, the “JAK1/JAK2 (times)” value is listed as “F3 (10 < F3 ≤ 25)”. In addition, on JAK3 (setting [1]), the “JAK3/JAK2 (times)” value was “F4 (25 < F4 ≤ 100)”. Moreover, the IC50 at JAK2 (setting [2]) was below 10 nM.

`CCS(=O)(=O)N1CC(CC#N)(n2cc(-c3cccn4nc(NC(=O)C5CC5)nc34)cn2)C1` [WX20, N-(8-(1-(3-(cyanomethyl)-1-(ethylsulfonyl)azetidine-3-yl)-1H-pyrazole-4-yl)-[1,2,4]triazolo[1,5-a]pyridin-2-yl) cyclopropanecarboxamide]: the “JAK1/JAK2 (times)” value at JAK1 was “F1 (1 ≤ F1 ≤ 5)”. Also, the “JAK3/JAK2 (times)” value at JAK3 (setting [1]) is “F4 (25 < F4 ≤ 100)”. For the same compound, at JAK2 (setting [2]), the IC50 is below 10 nM.

With `CS(=O)(=O)N1CC(CC#N)(n2cc(-c3cccc4nc(N)sc34)cn2)C1` [WX27, 2-(3-(4-(2-aminobenzo[d]thiazole-7-yl)-1H-pyrazole-1-yl)-(methylsulfonyl)azetidine-3-yl) methyl cyanide], on JAK1, the “JAK1/JAK2 (times)” value is “F3 (10 < F3 ≤ 25)”. Moreover, the “JAK3/JAK2 (times)” value on JAK3 is given as “F2 (key: 1 ≤ F1 ≤ 5; 5 < F2 ≤ 10; 10 < F3 ≤ 25; 25 < F4 ≤ 100)”. Besides, on JAK2, the half-maximal inhibitory concentration (IC50) is below 10 nM.

As for `CCS(=O)(=O)N1CC(CC#N)(n2cc(-c3nccn4nc(NC(=O)C5CC5)nc34)cn2)C1` [WX31, N-[8-[1-[3-(cyanomethyl)-1-ethylsulfonylazetidin-3-yl]pyrazole-4-yl)-[1,2,4]triazolo[1,5-a]pyrazine-2-yl] cyclopropanecarboxamide], the “JAK1/JAK2 (times)” value on JAK1 was “F2 (5 < F2 ≤ 10)”. In addition, the “JAK3/JAK2 (times)” value on JAK3 (setting [1]) is “F3 (10 < F3 ≤ 25)”. Also, the IC50 at JAK2 (setting [2]) lay within 100 to 1000 nM.

For `N#CCC1(n2cc(-c3nccc4nc(NC(=O)C5CC5)nn34)cn2)CN(C(=O)C2CC2)C1` [WX11, N-[5-[1-[3-(cyanomethyl)-1-(cyclopropylcarbonyl)azetidine-3-]pyrazole-4-]-[1,2,4]triazoloe[1,5-c]pyrimidine2-] cyclopropane carboxamide], the “JAK1/JAK2 (times)” value on JAK1 is given as “F2 (5 < F2 ≤ 10)”. For the same compound, on JAK3 (setting [1]), the “JAK3/JAK2 (times)” value is listed as “F3 (10 < F3 ≤ 25)”. At JAK2 (setting [2]), the IC50 fell in the range of 100 to 1000 nM.

Take `COCC(=O)Nc1nc2ccnc(-c3cnn(C4(CC#N)CN(S(=O)(=O)C(F)(F)F)C4)c3)n2n1` [WX24, N-(5-(1-(3-(cyanomethyl)-1-((trifluoromethyl)sulfonyl)azetidine-3-yl)-1H-pyrazole-4-yl)-[1,2,4]triazolo[1,5-c]pyridin-2-yl)-2-methoxyacetamide]: on JAK1, the “JAK1/JAK2 (times)” value is given as “F3 (10 < F3 ≤ 25)”. The “JAK3/JAK2 (times)” value at JAK3 (setting [1]) is given as “F4 (25 < F4 ≤ 100)”. Moreover, the IC50 at JAK2 (setting [2]) fell in the range of 10 to 100 nM.

As for “N-(5-(1-(3-(cyanomethyl)-1-((methylsulfonyl)azetidine-3-yl)-1H-pyrazole-4-yl)-[1,2,4]triazolo[1,5-c]pyridin-2-yl)-2-methoxyacetamide [WX25]”, the “JAK1/JAK2 (times)” value on JAK1 is listed as “F3 (10 < F3 ≤ 25)”. On JAK3 (setting [1]), the “JAK3/JAK2 (times)” value is “F2 (5 < F2 ≤ 10)”. At JAK2 (setting [2]), the IC50 was 100 to 1000 nM.

Turning to `N#CCC1(n2cc(-c3cccc4nc(NC(=O)C5CC5)nn34)cn2)CN(S(=O)(=O)C2CC2)C1` [WX08, N-(5-(1-(3-(cyanomethyl)-1-(cyclopropylsulfonyl)azetidine-3-yl)-1H-pyrazole-4-yl)-[1,2,4]triazolo[1,5-a]pyridin-2-yl)cyclopropane formamide], at JAK1, the “JAK1/JAK2 (times)” value is “F1 (1 ≤ F1 ≤ 5)”. At JAK3 (setting [1]), the “JAK3/JAK2 (times)” value is “F4 (25 < F4 ≤ 100)”. For the same compound, at JAK2 (setting [2]), the IC50 is below 10 nM.

(Values after patent US10174036B2, “Substituted pyrazoles as JAK inhibitors” (WUXI FORTUNE PHARMACEUTICAL CO., LTD, priority 2015, dated 2019).)
